Assays:
Lewis lung carcinoma = experiment: Antitumor activity against intravenously inoculated Lewis lung carcinoma in mice; format: in vivo, BDF1 mice; details: Day +19
Procedure: Lewis lung carcinoma cells, 5×10^5 viable cells, were injected intravenously into BDF1 mice. The drug was prepared in normal saline and administered once daily, by the oral route, at doses ranging from 38 mg./kg to 400 mg/kg on days 1, 7, and 13 following tumor cell inoculation. A control group of mice received a saline placebo, instead of drug, by the oral route on the same days of treatment. All mice were sacrificed on day 19 following tumor inoculation, their lungs removed and individually weighed. Additionally, a group of 10 normal, non-tumor bearing BDF1 mice, of the same sex, age, and body weight as the tumor bearing mice, were sacrificed and their lungs removed and weighed to determine the average normal lung weight. The average normal lung weight was subtracted from the weight of lungs from the tumored mice to determine the weight of tumorous tissue present in the lungs of the tumor bearing mice. A postive drug effect is indicated by a ≥58% reduction in the average lung tumor weight of the drug treated mice, relative to the average lung tumor weight of the saline placebo treated mice.
^1 BDF1 male mice inoculated intravenously with 5 ×
10^5 Lewis lung tumor cells on day zero:
3,6bis(2-diethylaminoethoxy)acridine trihydrochloride administered on day
1,7, and 13 after tumor inoculation.
^2 Average lung tumor weight = average weight of lungs from tumor
bearing mice, minus average weight of lungs from normal, nontumor bearing
*Denotes significant (≥58%) inhibition of lung tumor weight.

Columbia SK virus = experiment: Antiviral effects against an interferon-sensitive virus, Columbia SK; format: in vivo, Taconic Farms male, white mice; details: 400 mg/kg oral, 18 hours before infection; 14 days post injection
Procedure: Taconic Farms male, white mice, weighing 18-24 g were treated by gavage, 18 hours before infection with a test compound suspended or dissolved in 1.0 ml of 0.2% aqueous agar solution. The mice were then infected by subcutaneous injection with one LD95 of Columbia SK virus in 0.2 ml of distilled water. Groups of infected, untreated mice were used as controls to show the lethality of the infection. The test duration was 14 days.

B16 melanoma = experiment: Surgical-adjuvant antitumor activity against B16 melanoma implanted subcutaneously in footpads; format: in vivo, BDF1 mice; details: for Average % of tumor weight inhibition / Average tumor weight: Day +21; for No. Survivors/No. Treated: at +90 days
Procedure: BDF1 mice were inoculated subcutaneously in the right hind footpad with 5×10^5 viable B16 melanoma cells, on day zero. The drug was prepared in normal saline and administered by the oral route once daily, on days 1, 7, and 13 following tumor implantation, at doses range from 50 mg/kg to 400 mg/kg. A control group of mice received a saline placebo instead of drug, and another group of tumor bearing mice received the positive control drug cyclophosphamide, at 100 mg/kg, by intraperitoneal injection. On the 21st day after tumor implantation, the mice were anesthesized with Nembutal, and the tumor bearing feet were surgically amputated above the ankle joint. The surgical incision was swabbed with alcohol and sealed with stainless steel wound clips. The tumor bearing feet were individually weighed and the average weight of a normal foot (determined by weighing amputated feet from non-tumor bearing mice of the same sex, age, and body weight) was subtracted to obtain the weight of tumor tissue in the amputated feet. Mice were then observed for deaths until the 90th day after tumor implantation. […]
^1 BDF1 male mice inocluated with 5 × 10^5 B16 melanom
cells subcutaneously in footpad on day zero;
3,6bis(2-diethylaminoethoxy)acridine trihydrochloride administered orally
and Cyclophosphamide intraperitoneally, on days 1, 7, and 13 following
^2 Average tumor weight determined after surgical amputation of tumor
bearing foot on day 21 following tumor implantation.

[1] = 300 mg/kg oral, * significant (≥58%)
[2] = 400 mg/kg oral, * significant (≥58%)

SMILES: CCN(CC)CCOc1ccc2cc3ccc(OCCN(CC)CC)cc3nc2c1.Cl.Cl.Cl
- Average % tumor inhibition (Lewis lung carcinoma; 38 mg/kg oral): 33%
- Average lung tumor weight (Lewis lung carcinoma; 38 mg/kg oral): 99 mg
- No. Survivors/No. Treated (Lewis lung carcinoma; 38 mg/kg oral): 10/12
- Average % tumor inhibition (Lewis lung carcinoma; 75 mg/kg oral): 5%
- Average lung tumor weight (Lewis lung carcinoma; 75 mg/kg oral): 139 mg
- No. Survivors/No. Treated (Lewis lung carcinoma; 75 mg/kg oral): 12/12
- Average % tumor inhibition (Lewis lung carcinoma; 150 mg/kg oral): 51%
- Average lung tumor weight (Lewis lung carcinoma; 150 mg/kg oral): 72 mg
- No. Survivors/No. Treated (Lewis lung carcinoma; 150 mg/kg oral): 12/12
- Average lung tumor weight (Lewis lung carcinoma; 300 mg/kg oral): 40 mg
- No. Survivors/No. Treated (Lewis lung carcinoma; 300 mg/kg oral): 12/12
- Average % tumor inhibition (Lewis lung carcinoma; [1]): 73%
- Average lung tumor weight (Lewis lung carcinoma; 400 mg/kg oral): 12 mg
- No. Survivors/No. Treated (Lewis lung carcinoma; 400 mg/kg oral): 10/12
- Average % tumor inhibition (Lewis lung carcinoma; [2]): 92%
- Survivors/Total (Columbia SK virus): 10/15
- % Increased life-span (B16 melanoma; 50 mg/kg oral): 2%
- Median survival time (B16 melanoma; 50 mg/kg oral): 54.0 days
- Average % of tumor weight inhibition (B16 melanoma; 50 mg/kg oral): 33%
- Average tumor weight (B16 melanoma; 50 mg/kg oral): 403 mg
- No. Survivors/No. Treated (B16 melanoma; 50 mg/kg oral): 0/12
- % Increased life-span (B16 melanoma; 100 mg/kg oral): 21%
- Median survival time (B16 melanoma; 100 mg/kg oral): 64.0 days
- Average tumor weight (B16 melanoma; 100 mg/kg oral): 225 mg
- Average % of tumor weight inhibition (B16 melanoma; 100 mg/kg oral, * significant (≥58%)): 63%
- No. Survivors/No. Treated (B16 melanoma; 100 mg/kg oral): 2/12
- Median survival time (B16 melanoma; 200 mg/kg oral): > 90.0 days
- Average tumor weight (B16 melanoma; 200 mg/kg oral): 122 mg
- Average % of tumor weight inhibition (B16 melanoma; 200 mg/kg oral, * significant (≥58%)): 80%
- No. Survivors/No. Treated (B16 melanoma; 200 mg/kg oral, ** significant): 7/12
- % Increased life-span (B16 melanoma; 200 mg/kg oral, + significant (≥25%)): > 70%
- Median survival time (B16 melanoma; 300 mg/kg oral): > 90.0 days
- Average tumor weight (B16 melanoma; 300 mg/kg oral): 63 mg
- Average % of tumor weight inhibition (B16 melanoma; [1]): 90%
- No. Survivors/No. Treated (B16 melanoma; 300 mg/kg oral, ** significant): 8/12
- % Increased life-span (B16 melanoma; 300 mg/kg oral, + significant (≥25%)): > 70%
- Median survival time (B16 melanoma; 400 mg/kg oral): 69.0 days
- Average tumor weight (B16 melanoma; 400 mg/kg oral): 51 mg
- Average % of tumor weight inhibition (B16 melanoma; [2]): 92%
- No. Survivors/No. Treated (B16 melanoma; 400 mg/kg oral, ** significant): 5/12
- % Increased life-span (B16 melanoma; 400 mg/kg oral, + significant (≥25%)): 30%

Source: patent US4314061A, “Certain 3,6-bis-(heteroaminoalkoxy) acridines” (priority 1980, dated 1982)
